Patent US20260083704A1, “LXR MODULATORS WITH BICYCLIC CORE MOIETY FOR TREATING DYSLIPIDEMIAS” (OrsoBio, Inc., priority 2022, published 2026)
Where two headings read alike, the source gives them in different places. Marks after values point to notes of the source that are not given here.

How the values were obtained:
[1] = system: LXR target genes in the liver; assay: Liver LXR target gene expression 24 hours after a single oral dose in mice; format: in vivo; conditions: 24 hours post-dose
Protocol: Data are shown as mean±SD. N=3-8 wells per treatment.
The efficacy of Compound 21/3 and Compound pre-6/3 were evaluated in diet-induced obese (DIO) mouse and rat models.

[2] = system: humanized liver chimeric PXB mice; assay: Humanized liver chimeric PXB mouse model; format: in vivo; conditions: 1 mg/kg once daily oral, 8 days
Protocol: Data are shown as mean±SD. N=4-5 animals per group. *p≤0.05, **p≤0.01, ***p≤0.001, ****p≤0.0001 Mann-Whitney test.
Since features of cholesterol metabolism differ between rodents and humans, the humanized liver chimeric PXB® mouse model was utilized to further explore the effects of Compound 21/3 on lipid metabolism in a more relevant nonclinical model (Tateno, Yoshizane et al. 2004). Briefly, PXB mice were treated with either vehicle or Compound 21/3 (1 mg/kg once daily by oral gavage) for 8 days. The pharmacokinetics (PK) data from this study are presented herein. […] Specifically, Compound 21/3 reduced the expression of the cholesterol synthesis gene, HMGCR, as well as in genes that reduce the hepatic uptake of LDL-C (PCSK9, IDOL) and conversion of cholesterol to bile acids (CYP7A1). As expected, marked reductions in ANGPTL3 and DNL-associated genes (SREBP1C, ACACA, FASN, SCD1) were also observed.

[3] = Phase 1 study, MAD cohorts: plasma pharmacokinetics; format: in vivo, human; conditions: healthy subjects; for AUC / Cmax / Tmax / half-life: both sexes, human, plasma, oral
Protocol: (§1) A double-blind, placebo-controlled, single- and multiple-ascending dose FIH Phase 1 study to evaluate the safety, tolerability, PK, and PD of Compound 21/3 in healthy adult subjects was performed. A total of up to 150 subjects were enrolled, including 100 subjects in Parts A and B, and up to 50 subjects in adaptive cohorts in Part C. Within each cohort, 10 subjects were randomized, including 8 subjects randomized to Compound 21/3 and 2 subjects to PTM (placebo-to-match). In single-dose cohorts in Parts A and in any Part C cohort evaluating a higher total daily dose than previously evaluated, safety and tolerability data collected through Day 2 from two sentinel subjects, one randomized to Compound 21/3 and one to PTM, were evaluated prior to dosing of the remaining subjects in each cohort.
Intensive PK sampling over 72 h postdose on Day 1 (SAD and MAD) and Day 14 (MAD) was performed. Compound 21/3 plasma concentrations were determined using validated liquid chromatography-tandem mass spectrometry assay. PK parameters were estimated via noncompartmental methods using Pheonix® WinNonlin® 6.2.1 and 8.3.4 (Certara, LP, Princeton, NJ).
Part B evaluated the safety, tolerability, PK, and PD of multiple-ascending doses of oral Compound 21/3 or placebo under fed conditions. Part B will proceed in up to 5 dose-escalation cohorts and will be governed by a review of safety, tolerability, and any available and relevant PK and/or PD data, and study-specific stopping criteria.

healthy subjects = assay: Phase 1 study, MAD cohorts: safety and tolerability; format: in vivo, human; conditions: for Abdominal pain / Any TEAE / Back pain / Diarrhea / Grade ≥2 TEAE / Headache / Pruritis / Serious TEAE / TEAE leading to study drug discontuation / Treatment-related TEAE / subjects with mild (Grade 1), transient increase in serum ALT: MAD; for Abdominal pain / Any TEAE / Back pain / Diarrhea / Grade ≥2 TEAE / Headache / Pruritis / Serious TEAE / TEAE leading to study drug discontuation / Treatment-related TEAE: n = 8
Protocol: as §1
An approximately even distribution of healthy male and non-pregnant, non-lactating female subjects 18 to 55 years of age, inclusive, were to be enrolled in the study. There were no significant medical conditions by history, physical examination, or laboratory evaluation. Subjects were not allowed to participate in more than one cohort of the study. Within each MAD cohort, attempts were made to enrich for >3 subjects with elevated TG and/or LDL-C. Following the completion of Screening and admission assessments, eligible subjects were to be enrolled on Day −1. Safety and tolerability assessments, including adverse event (AE) monitoring, laboratory tests, physical examinations, and ECG evaluations were performed throughout the study.
The severity of AEs was graded using the Common Terminology Criteria for Adverse Events version 5.0 (CTCAE v5.0).

For N#Cc1cccc(C#N)c1-c1c(-c2cccc(-c3ccc(C(=O)NCC(=O)O)cc3Cl)c2)n(S(=O)(=O)c2ccc(C(F)F)cc2)c2ccc(F)cc12 [Compound 21/3], the “target engagement in the liver (expression of LXR target genes)” value [1] was “sustained target engagement”, the “hepatic TG and TC content” value [2] was “trended to reduce” and the “hepatic expression of genes involved in the metabolism of cholesterol and TG” value ([2]; relative to vehicle) was “significantly reduced”. The AUC ([3]; 2 mg, MAD Day 14, 2 mg, fed, mean) was 2.7 ng·h/mL, the Cmax ([3]; 2 mg, MAD Day 14, 2 mg, fed, mean, read-out: Cmax) was 0.95 ng/mL and the Tmax ([3]; 2 mg, MAD Day 14, 2 mg, fed, median) was 4 h. The half-life ([3]; 2 mg, MAD Day 14, 2 mg, fed, median, read-out: t1/2 (converted)) was 1.43 h, the AUC ([3]; 6 mg, MAD Day 14, 6 mg (fasted), mean) was 19 ng·h/mL and the Cmax ([3]; 6 mg, MAD Day 14, 6 mg (fasted), mean, read-out: Cmax) was 6.37 ng/mL. It also gave a Tmax ([3]; 6 mg, MAD Day 14, 6 mg (fasted), median) of 2 h, a half-life ([3]; 6 mg, MAD Day 14, 6 mg (fasted), median, read-out: t1/2 (converted)) of 1.46 h and an AUC ([3]; 6 mg, MAD Day 14, 6 mg, fed, mean) of 6.05 ng·h/mL. For the same compound, the Cmax ([3]; 6 mg, MAD Day 14, 6 mg, fed, mean, read-out: Cmax) was 2.16 ng/mL, the Tmax ([3]; 6 mg, MAD Day 14, 6 mg, fed, median) was 3.5 h and the half-life ([3]; 6 mg, MAD Day 14, 6 mg, fed, median, read-out: t1/2 (converted)) was 1.51 h. It also gave an AUC ([3]; 12 mg, MAD Day 14, 12 mg, fed, mean) of 14.6 ng·h/mL, a Cmax ([3]; 12 mg, MAD Day 14, 12 mg, fed, mean, read-out: Cmax) of 4.85 ng/mL and a Tmax ([3]; 12 mg, MAD Day 14, 12 mg, fed, median) of 3.5 h. The half-life ([3]; 12 mg, MAD Day 14, 12 mg, fed, median, read-out: t1/2 (converted)) was 1.74 h, the half-life ([3]; MAD, read-out: steady-state t1/2) was 1.4 to 2.6 h and the Tmax ([3]; Phase 1 summary (SAD and MAD)) was 2 to 4 h. The Cmax ([3]; Phase 1 summary (SAD and MAD), read-out: maximal plasma concentrations (Cmax)) was less than 7 ng/mL, the “steady-state t1/2” value ([3]; MAD) was 1.5 to 2.5 h and the “AUC and Cmax lower on Day 14 vs Day 1” value ([3]; MAD, fed dosing) was 25-50%. For the same compound, the “dose proportionality of AUC and Cmax” value ([3]; MAD, fed dosing) was “increased less than dose proportionally”, the Abdominal pain (healthy subjects; 0.5 mg, fed) was 1 (13) and the “Any TEAE” value (healthy subjects; 0.5 mg, fed) was 7 (88). The Back pain (healthy subjects; 0.5 mg, fed) was 0 (0), the Diarrhea (healthy subjects; 0.5 mg, fed) was 2 (25) and the “Grade ≥2 TEAE” value (healthy subjects; 0.5 mg, fed) was 0 (0). The Headache (healthy subjects; 0.5 mg, fed) was 1 (13), the Pruritis (healthy subjects; 0.5 mg, fed) was 4 (50) and the “Serious TEAE” value (healthy subjects; 0.5 mg, fed) was 0 (0). For the same compound, the “TEAE leading to study drug discontuation” value (healthy subjects; 0.5 mg, fed) was 0 (0), the “Treatment-related TEAE” value (healthy subjects; 0.5 mg, fed) was 0 (0) and the Abdominal pain (healthy subjects; 2 mg, fed) was 0 (0). For the same compound, the “Any TEAE” value (healthy subjects; 2 mg, fed) was 3 (38), the Back pain (healthy subjects; 2 mg, fed) was 0 (0) and the Diarrhea (healthy subjects; 2 mg, fed) was 0 (0). The Headache (healthy subjects; 2 mg, fed) was 0 (0), the Pruritis (healthy subjects; 2 mg, fed) was 0 (0) and the “Serious TEAE” value (healthy subjects; 2 mg, fed) was 0 (0). For the same compound, the “TEAE leading to study drug discontuation” value (healthy subjects; 2 mg, fed) was 0 (0), the “Treatment-related TEAE” value (healthy subjects; 2 mg, fed) was 0 (0) and the “Grade ≥2 TEAE” value (healthy subjects; 2 mg, fed, Grade 2 thrombophlebitis considered unrelated to study treatment) was 1 (13)*. The Abdominal pain (healthy subjects; 6 mg (fasted)) was 1 (13), the “Any TEAE” value (healthy subjects; 6 mg (fasted)) was 1 (13) and the Back pain (healthy subjects; 6 mg (fasted)) was 0 (0). For the same compound, the Diarrhea (healthy subjects; 6 mg (fasted)) was 0 (0), the “Grade ≥2 TEAE” value (healthy subjects; 6 mg (fasted)) was 0 (0) and the Headache (healthy subjects; 6 mg (fasted)) was 0 (0). For the same compound, the Pruritis (healthy subjects; 6 mg (fasted)) was 0 (0), the “Serious TEAE” value (healthy subjects; 6 mg (fasted)) was 0 (0) and the “TEAE leading to study drug discontuation” value (healthy subjects; 6 mg (fasted)) was 0 (0). The “Treatment-related TEAE” value (healthy subjects; 6 mg (fasted)) was 0 (0), the Abdominal pain (healthy subjects; 6 mg, fed) was 1 (13) and the “Any TEAE” value (healthy subjects; 6 mg, fed) was 5 (63). The Back pain (healthy subjects; 6 mg, fed) was 2 (25), the Diarrhea (healthy subjects; 6 mg, fed) was 1 (13) and the “Grade ≥2 TEAE” value (healthy subjects; 6 mg, fed) was 0 (0). The Headache (healthy subjects; 6 mg, fed) was 1 (13), the Pruritis (healthy subjects; 6 mg, fed) was 0 (0) and the “Serious TEAE” value (healthy subjects; 6 mg, fed) was 0 (0). The “TEAE leading to study drug discontuation” value (healthy subjects; 6 mg, fed) was 0 (0), the “Treatment-related TEAE” value (healthy subjects; 6 mg, fed) was 1 (13) and the Abdominal pain (healthy subjects; 12 mg, fed) was 1 (13). For the same compound, the “Any TEAE” value (healthy subjects; 12 mg, fed) was 3 (38), the Back pain (healthy subjects; 12 mg, fed) was 0 (0) and the Diarrhea (healthy subjects; 12 mg, fed) was 2 (25). The “Grade ≥2 TEAE” value (healthy subjects; 12 mg, fed) was 0 (0), the Headache (healthy subjects; 12 mg, fed) was 2 (25) and the Pruritis (healthy subjects; 12 mg, fed) was 0 (0). The “Serious TEAE” value (healthy subjects; 12 mg, fed) was 0 (0), the “TEAE leading to study drug discontuation” value (healthy subjects; 12 mg, fed) was 0 (0) and the “Treatment-related TEAE” value (healthy subjects; 12 mg, fed) was 2 (25). The tolerability (healthy subjects; healthy subjects, 0.5, 2, 6, and 12 mg for 14 days) was “well tolerated”, the “subjects with treatment-related TEAEs (all mild, gastrointestinal)” value (healthy subjects; healthy subjects, MAD cohorts) was 3 subjects and the “proportion of subjects with adverse events (AEs)” value (healthy subjects; healthy subjects, MAD cohorts, range over dose groups) was 13-88%. The “subjects with mild (Grade 1), transient increase in serum ALT” value (healthy subjects; healthy subjects, 6 mg group, fed) was “one”, the “subjects with mild (Grade 1), transient increase in serum ALT” value (healthy subjects; healthy subjects, 12 mg group, fed) was 4 subjects and the safety and tolerability (healthy subjects; healthy subjects, single and multiple daily doses up to 20 mg/d for 14 days) was “safe and well tolerated”.
